Consider 25 compounds from patent US20240417405A1, “Substituted Spiro Derivatives” (Janssen Pharmaceutica NV, priority 2021, published 2024).

What is called IC50 is the point on the concentration scale where inhibition reaches its midpoint.

Assay [1] concerns the target T1, menin/MLL (terbium chelate-labeled menin, FITC-MBM1 peptide) (Homo sapiens, UniProt O00255, T541A).
T1 construct: Menin (a.a 1-610-6xhis tag)
T1 sequence (O00255 with tags, fused parts or gaps T541A): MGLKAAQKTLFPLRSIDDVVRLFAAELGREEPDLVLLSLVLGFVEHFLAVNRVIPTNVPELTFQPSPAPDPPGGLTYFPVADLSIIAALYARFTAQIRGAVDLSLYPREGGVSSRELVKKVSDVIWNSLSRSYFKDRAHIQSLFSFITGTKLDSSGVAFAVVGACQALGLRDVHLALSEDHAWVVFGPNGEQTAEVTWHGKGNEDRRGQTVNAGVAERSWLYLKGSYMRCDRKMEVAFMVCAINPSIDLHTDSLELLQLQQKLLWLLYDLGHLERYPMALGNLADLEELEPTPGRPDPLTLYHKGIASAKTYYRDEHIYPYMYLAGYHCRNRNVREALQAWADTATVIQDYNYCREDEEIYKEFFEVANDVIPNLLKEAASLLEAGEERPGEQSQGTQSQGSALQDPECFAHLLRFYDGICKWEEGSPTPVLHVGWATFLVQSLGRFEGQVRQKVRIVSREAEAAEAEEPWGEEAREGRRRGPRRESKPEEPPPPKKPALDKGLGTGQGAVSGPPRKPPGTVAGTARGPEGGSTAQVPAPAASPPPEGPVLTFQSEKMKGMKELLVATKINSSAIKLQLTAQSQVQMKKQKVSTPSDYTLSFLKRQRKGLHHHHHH
Briefly: Menin/MLL homogenous time-resolved fluorescence (HTRF) assay. Particulars: 30 min incubation. The format is binding. In outline:
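Displacement of FITC-labeled MBM1 peptide (75 nM) from terbium-labeled menin 1-610 (200 pM) measured by HTRF emission ratio. Eleven four-fold dilutions, typically from 10 μM, normalised to saturating-competitor and no-compound controls; IC50 from four-parameter logistic.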

A further assay has as its system MOLM14 cells. Briefly: Proliferation assay, spheroid-like growth, MOLM14 (MLL-AF9 rearranged). Type of assay: cell-based, human. Particulars: 8 days, confluence as measure of spheroid size, read-out: spheroid assay_OneTime MOLM14 IC50. A digest of the protocol:
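Read-out is spheroid confluence from live-cell images taken on day 8, scaled between DMSO-treated wells (0% cytotoxicity) and a low control such as 1 μM staurosporin. Cells were exposed to compound for 8 days in low-attachment plates; KO-52 served as the MLL-wildtype counterscreen.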

The structures appear in SMILES notation. Like-named read-outs stand apart in the source and are kept apart here.

For `CC(C)C([C@H]1C[C@@H](Nc2ncccn2)C1)N1CC2(CCN(c3ncnnc3Oc3ccc(F)cc3-c3cncnc3C3CC3)C2)C1` (some centres unmarked) [Compound 192], the half-inhibitory concentration (IC50) turned out to be 4.8 nM in assay [1] and 1040 nM with MOLM14 cells (Homo sapiens, MOLM-14, 192 h).

For the compound `CC(=O)N1CC2CN([C@H]3C[C@@H]([C@H](C(C)C)N4CC5(CCN(c6ncnnc6Oc6ccc(F)cc6-c6cnc(C)nc6C6CC6)C5)C4)C3)CC2C1` (some centres unmarked) [Compound 375], the concentration for half-maximal inhibition (IC50) in assay [1] came to 0.055 nM; in the assay on MOLM14 cells, 4 nM.

With `CC(=O)N1CC2CN([C@H]3C[C@H]([C@H](C(C)C)N4CC5(CCN(c6ncnnc6Oc6ccc(F)cc6-c6cnc(C)nc6C6CC6)C5)C4)C3)CC2C1` (some centres unmarked) [Compound 376], the IC50 amounted to 0.62 nM in assay [1] and 100 nM in the assay on MOLM14 cells (Homo sapiens, MOLM-14, 192 h).

Consider `CC(=O)N1CC2CN([C@H]3C[C@@H]([C@H](C(C)C)N4CC5(CCN(c6ncnnc6Oc6ccc(F)cc6-c6cnc(C)nc6C6CC6)C5)C4)C3)CC2C1` (some centres unmarked) [Compound 378], for which the IC50 was 0.106 nM in assay [1] and 1.6 nM in the assay with MOLM14 cells.

On to `Cc1ncc(-c2cc(F)ccc2Oc2nncnc2N2CCC3(C2)CN([C@@H](C(C)C)[C@H]2C[C@@H](N4CCC5(CN(C(=O)C6CC6)C5)C4)C2)C3)c(C2CC2)n1` [Compound 380], for which the IC50 in assay [1] stood at 0.16 nM; with MOLM14 cells (Homo sapiens, MOLM-14, 192 h), 3.7 nM.

As to `CC(=O)N1CC2(CCN([C@H]3C[C@@H]([C@H](C(C)C)N4CC5(CCN(c6ncnnc6Oc6ccc(F)cc6-c6cnc(C)nc6C6CC6)C5)C4)C3)C2)C1` [Compound 381], the IC50 was determined as 0.14 nM in assay [1] and 8.1 nM in the assay with MOLM14 cells (Homo sapiens, MOLM-14, 192 h).

As for `Cc1ncc(-c2cc(F)ccc2Oc2nncnc2N2CCC3(C2)CN([C@@H](C(C)C)[C@H]2C[C@@H](N4CCC5(COC5)C4)C2)C3)c(C2CC2)n1` [Compound 382], the half-inhibitory concentration (IC50) in assay [1] stood at 0.08 nM; with MOLM14 cells (Homo sapiens, MOLM-14, 192 h), 7 nM.

`Cc1ncc(-c2cc(F)ccc2Oc2nncnc2N2CCC3(C2)CN([C@@H](C(C)C)[C@H]2C[C@@H](N4CC[C@H](C(=O)N(C)C)C4)C2)C3)c(C2CC2)n1` [Compound 383]: the IC50 in assay [1] turned out to be 0.04 nM; in the assay with MOLM14 cells (Homo sapiens, MOLM-14, 192 h), 2.3 nM.

As to `Cc1ncc(-c2cc(F)ccc2Oc2nncnc2N2CCC3(C2)CN([C@@H](C(C)C)[C@H]2C[C@@H](N4CC[C@H](C(=O)NC5CC5)C4)C2)C3)c(C2CC2)n1` [Compound 384], the concentration for half-maximal inhibition (IC50) in assay [1] is 0.085 nM; with MOLM14 cells (Homo sapiens, MOLM-14, 192 h), 0.7 nM.

As for `Cc1ncc(-c2cc(F)ccc2Oc2nncnc2N2CCC3(C2)CN([C@@H](C(C)C)[C@H]2C[C@@H](N4C[C@@H]5[C@H](C4)[C@H]5NC(=O)C4CC4)C2)C3)c(C2CC2)n1` [Compound 385], the concentration for half-maximal inhibition (IC50) was 0.026 nM in assay [1] and < 1.8 nM in the assay on MOLM14 cells (Homo sapiens, MOLM-14, 192 h).

`Cc1ncc(-c2cc(F)ccc2Oc2nncnc2N2CCC3(C2)CN([C@@H](C(C)C)[C@H]2C[C@@H](N4CC[C@@H](NC(=O)C5CC5)C4)C2)C3)c(C2CC2)n1` [Compound 386]: the IC50 was 0.059 nM in assay [1] and < 1.8 nM in the assay with MOLM14 cells (Homo sapiens, MOLM-14, 192 h).

With `Cc1ncc(-c2cc(F)ccc2Oc2nncnc2N2CCC3(C2)CN([C@@H](C(C)C)[C@H]2C[C@@H](N4CC[C@H](NC(=O)C5CC5)C4)C2)C3)c(C2CC2)n1` [Compound 387], the IC50 in assay [1] is 0.026 nM; in the assay on MOLM14 cells (Homo sapiens, MOLM-14, 192 h), < 1.8 nM.

Regarding `CC(=O)N[C@H]1CCN([C@H]2C[C@@H]([C@H](C(C)C)N3CC4(CCN(c5ncnnc5Oc5ccc(F)cc5-c5cnc(C)nc5C5CC5)C4)C3)C2)C1` [Compound 388], the IC50 in assay [1] was 0.027 nM; with MOLM14 cells (Homo sapiens, MOLM-14, 192 h), < 1.8 nM.

Consider `CC(=O)N[C@@H]1CCN([C@H]2C[C@@H]([C@H](C(C)C)N3CC4(CCN(c5ncnnc5Oc5ccc(F)cc5-c5cnc(C)nc5C5CC5)C4)C3)C2)C1` [Compound 389], for which the IC50 was 0.046 nM in assay [1] and 2 nM with MOLM14 cells (Homo sapiens, MOLM-14, 192 h).

On to `CC(=O)N[C@H]1[C@@H]2CN([C@H]3C[C@@H]([C@H](C(C)C)N4CC5(CCN(c6ncnnc6Oc6ccc(F)cc6-c6cnc(C)nc6C6CC6)C5)C4)C3)C[C@@H]21` [Compound 390], for which the 50% inhibitory concentration (IC50) in assay [1] worked out at 0.18 nM; in the assay with MOLM14 cells (Homo sapiens, MOLM-14, 192 h), 4 nM.

For the compound `Cc1ncc(-c2cc(F)ccc2Oc2nncnc2N2CCC3(C2)CN([C@@H](C(C)C)[C@H]2C[C@@H](N4CC5(CN(C(=O)C6(F)CC6)C5)C4)C2)C3)c(C2CC2)n1` [Compound 391], the IC50 in assay [1] is 0.057 nM; in the assay on MOLM14 cells (Homo sapiens, MOLM-14, 192 h), < 1.8 nM.

Regarding `Cc1ncc(-c2cc(F)ccc2Oc2nncnc2N2CCC3(C2)CN([C@@H](C(C)C)[C@H]2C[C@@H](N4CC5(CN(C(=O)C6CC6)C5)C4)C2)C3)c(C2CC2)n1` [Compound 392], the IC50 in assay [1] is 0.11 nM; in the assay on MOLM14 cells (Homo sapiens, MOLM-14, 192 h), 2 nM.

As to `CNC(=O)[C@H]1CCN([C@H]2C[C@@H]([C@H](C(C)C)N3CC4(CCN(c5ncnnc5Oc5ccc(F)cc5-c5cnc(C)nc5C5CC5)C4)C3)C2)C1` [Compound 393], the concentration for half-maximal inhibition (IC50) is 0.13 nM in assay [1] and < 1.8 nM in the assay on MOLM14 cells (Homo sapiens, MOLM-14, 192 h).

For `CC(=O)N1CC2(C1)CN([C@H]1C[C@@H]([C@H](C(C)C)N3CC4(CCN(c5ncnnc5Oc5ccc(F)cc5-c5cnc(C)nc5C5CC5)C4)C3)C1)C2` [Compound 394], the IC50 in assay [1] was 0.083 nM; in the assay with MOLM14 cells (Homo sapiens, MOLM-14, 192 h) it was 3 nM.

Turning to `Cc1ncc(-c2cc(F)ccc2Oc2nncnc2N2CCC3(C2)CN([C@@H](C(C)C)[C@H]2C[C@@H](N4C[C@H]5COC[C@H]5C4)C2)C3)c(C2CC2)n1` [Compound 396], the concentration for half-maximal inhibition (IC50) in assay [1] is 0.059 nM; in the assay on MOLM14 cells (Homo sapiens, MOLM-14, 192 h) it was < 1.8 nM.

In the case of `CO[C@H]1CCN([C@H]2C[C@@H]([C@H](C(C)C)N3CC4(CCN(c5ncnnc5Oc5ccc(F)cc5-c5nnc(C)cc5C5CC5)C4)C3)C2)C1` [Compound 398], the 50% inhibitory concentration (IC50) came to 0.144 nM in assay [1] and 6.4 nM in the assay with MOLM14 cells (Homo sapiens, MOLM-14, 192 h).

For `Cc1cc(C2CC2)c(-c2cc(F)ccc2Oc2nncnc2N2CCC3(C2)CN([C@@H](C(C)C)[C@H]2C[C@H](N4C[C@@H]5[C@H](C4)[C@H]5C(=O)N(C)C)C2)C3)nn1` [Compound 401], the half-maximal inhibitory concentration (IC50) in assay [1] worked out at 0.52 nM; in the assay on MOLM14 cells (Homo sapiens, MOLM-14, 192 h), 260 nM.

As for `CO[C@H]1[C@@H]2CN([C@H]3C[C@@H]([C@H](C(C)C)N4CC5(CCN(c6ncnnc6Oc6ccc(F)cc6-c6nnc(C)cc6C6CC6)C5)C4)C3)C[C@@H]21` [Compound 402], the IC50 in assay [1] amounted to 0.17 nM; in the assay with MOLM14 cells (Homo sapiens, MOLM-14, 192 h) it was 9 nM.

As to `CO[C@H]1[C@@H]2CN([C@H]3C[C@H]([C@H](C(C)C)N4CC5(CCN(c6ncnnc6Oc6ccc(F)cc6-c6nnc(C)cc6C6CC6)C5)C4)C3)C[C@@H]21` [Compound 403], the IC50 in assay [1] amounted to 0.59 nM; in the assay with MOLM14 cells (Homo sapiens, MOLM-14, 192 h), 230 nM.

Take `CC(=O)Nc1cc(NC2CC(C(C(C)C)N3CC4(CCN(c5ncnnc5Oc5ccc(F)cc5-c5cncnc5C5CC5)C4)C3)C2)ccn1` (centres unmarked) [Compound 407]: the 50% inhibitory concentration (IC50) is 0.11 nM in assay [1] and < 1.8 nM with MOLM14 cells (Homo sapiens, MOLM-14, 192 h).
